Laboratory results from ChEMBL document CHEMBL4411258, “Novel natural compounds from endophytic fungi with anticancer activity” (Eur J Med Chem, 2018).
Converted amounts (≈) assume the structure as drawn. Values belong to the molecule of their own block, whether it stands above or below them. Positions of bridges follow the written chain, without caps; N, C: chain ends. Residues, ends and D or L forms follow the SMILES beside them.

Assays:
[1] = system: A2780cisR; experiment: Cytotoxicity against human A2780cisR cells after 72 hrs by CyQuant dye-based assay; assay type: functional, cell-based
[2] = system: A2780S; experiment: Cytotoxicity against human A2780S cells after 72 hrs by CyQuant dye-based assay; assay type: functional, cell-based
[3] = system: BT-549; experiment: Cytotoxicity against human BT549 cells after 48 hrs by neutral red dye based assay; assay type: functional, cell-based; conditions: BT-549, 48 h
[4] = system: SK-OV-3; experiment: Cytotoxicity against human SKOV3 cells after 48 hrs by neutral red dye based assay; assay type: functional, cell-based; conditions: SK-OV-3, 48 h
[5] = system: KB; experiment: Cytotoxicity against human KB cells after 48 hrs by neutral red dye based assay; assay type: functional, cell-based
[6] = system: SMMC-7721; experiment: Cytotoxicity against human SMMC7721 cells assessed as inhibition of cell growth at 40 uM by MTS assay; assay type: functional; conditions: read-out: GI
[7] = system: HL-60; experiment: Cytotoxicity against human HL60 cells assessed as inhibition of cell growth at 40 uM by MTS assay; assay type: functional; conditions: read-out: GI
[8] = system: A549; experiment: Cytotoxicity against human A549 cells assessed as inhibition of cell growth at 40 uM by MTS assay; assay type: functional; conditions: read-out: GI
[9] = system: SW480; experiment: Cytotoxicity against human SW480 cells assessed as inhibition of cell growth at 40 uM by MTS assay; assay type: functional; conditions: read-out: GI
[10] = system: MCF7; experiment: Cytotoxicity against human MCF7 cells assessed as inhibition of cell growth at 40 uM by MTS assay; assay type: functional; conditions: read-out: GI
[11] = system: MCF7; experiment: Cytotoxicity against human MCF7 cells by MTT assay; assay type: functional, cell-based
[12] = system: U2OS; experiment: Cytotoxicity against human U2OS cells by MTT assay; assay type: functional, cell-based
[13] = system: K562; experiment: Antiproliferative activity against human K562 assessed as growth inhibition; assay type: functional
[14] = Antiproliferative activity against HUVEC assessed as growth inhibition; assay type: cell-based; conditions: human, HUVEC cells
[15] = system: GH3; experiment: Cytotoxicity against rat GH3 cells by MTT assay; assay type: functional, cell-based
[16] = system: MMQ; experiment: Cytotoxicity against rat MMQ cells by MTT assay; assay type: functional, cell-based
[17] = system: SMMC-7721; experiment: Cytotoxicity against human SMMC7721 cells after 48 hrs by MTT assay; assay type: functional, cell-based; conditions: smmc-7721
[18] = system: A549; experiment: Cytotoxicity against human A549 cells after 48 hrs by MTT assay; assay type: functional, cell-based; conditions: a549
[19] = system: MCF7; experiment: Cytotoxicity against human MCF7 cells after 48 hrs by MTT assay; assay type: functional, cell-based; conditions: mcf7
[20] = system: HL-60; experiment: Cytotoxicity against human HL60 cells after 48 hrs by MTT assay; assay type: functional, cell-based; conditions: HL-60, 48 h
[21] = system: KB; experiment: Cytotoxicity against human KB cells by resazurin microplate assay; assay type: functional, cell-based
[22] = system: NCI-H187; experiment: Cytotoxicity against human NCI-H187 cells by resazurin microplate assay; assay type: functional, cell-based
[23] = system: MIA PaCa-2; experiment: Cytotoxicity against human MIAPaCa2 cells after 48 hrs by MTT assay; assay type: functional, cell-based; conditions: MIA PaCa-2, 48 h
[24] = system: HL-60; experiment: Cytotoxicity against human HL60 cells by XTT assay; assay type: functional, cell-based
[25] = system: MOLT-3; experiment: Cytotoxicity against human MOLT3 cells by XTT assay; assay type: functional, cell-based
[26] = system: MCF7; experiment: Cytotoxicity against human MCF7 cells after 24 hrs by MTT assay; assay type: functional, cell-based; conditions: MCF7, 24 h
[27] = system: A549; experiment: Cytotoxicity against human A549 cells after 24 hrs by MTT assay; assay type: functional, cell-based; conditions: A549, 24 h
[28] = system: HepG2; experiment: Cytotoxicity against human HepG2 cells after 24 hrs by MTT assay; assay type: functional, cell-based; conditions: HepG2, 24 h
[29] = system: HeLa; experiment: Cytotoxicity against human HeLa cells after 48 hrs by sulforhodamine B assay; assay type: functional, cell-based
[30] = system: A549; experiment: Cytotoxicity against human A549 cells after 48 hrs by MTS assay; assay type: functional, cell-based; conditions: A549, 48 h
[31] = system: MCF7; experiment: Cytotoxicity against human MCF7 cells after 48 hrs by MTS assay; assay type: functional, cell-based; conditions: MCF7, 48 h
[32] = system: HeLa; experiment: Cytotoxicity against human HeLa cells after 48 hrs by MTS assay; assay type: functional, cell-based
[33] = system: T-24; experiment: Cytotoxicity against human T24 cells after 48 hrs by MTS assay; assay type: functional, cell-based; conditions: T-24, 48 h
[34] = system: HuCC-A1; experiment: Cytotoxicity against human HuCCa1 cells by MTT assay; assay type: functional, cell-based
[35] = system: A549; experiment: Cytotoxicity against human A549 cells by MTT assay; assay type: functional, cell-based
[36] = system: MDA-MB-231; experiment: Cytotoxicity against human MDA-MB-231 cells by MTT assay; assay type: functional, cell-based
[37] = system: HepG2; experiment: Cytotoxicity against human HepG2 cells by MTT assay; assay type: functional, cell-based

Compound: CCCCC/C=C/C1=C(CO)C(=O)[C@H]2O[C@@]2(C/C=C(\C)C(=O)O)C1=O
IC50 [1]: 5.1 µM | IC50 [2]: 3.3 µM

Compound: C=C(CC[C@@H](C)[C@H]1CC=C2C3=C([C@@H](O)[C@H](OC(C)=O)[C@@]21C)[C@@]1(C)C[C@@H](OC(C)=O)[C@H](OC(C)=O)C(C)(C)[C@@H]1CC3)C(C)C
IC50 [3]: 1820 nM | IC50 [4]: 1320 nM | IC50 [5]: 180 nM

Compound: C=C(CC[C@@H](C)[C@H]1CC=C2C3=C([C@@H](O)[C@H](OC(C)=O)[C@@]21C)[C@@]1(C)C[C@@H](O)[C@H](OC(=O)c2ccc(O)cc2)C(C)(C)[C@@H]1CC3)C(C)C
IC50 [3]: 2460 nM | IC50 [4]: 3010 nM | IC50 [5]: 2540 nM

Compound: C=C1[C@@H](C)[C@H]2[C@H](Cc3c[nH]c4ccccc34)NC(=O)[C@@]2(C(=O)CCC(=O)OC)[C@@H](/C=C/CC(C)/C=C(\C)C=O)[C@@H]1O (stereo partly specified)
inhibition of growth at 40 µM [6]: 51% | inhibition of growth at 40 µM [7]: 96% | inhibition of growth at 40 µM [8]: 67% | inhibition of growth at 40 µM [9]: 61% | inhibition of growth at 40 µM [10]: 58%

Compound: Cc1cc(O)c(C(=O)c2cc(O)cc(O)c2C=O)c(O)c1
IC50 [11]: 16.8 µM | IC50 [12]: 11.6 µM

GI50 [13]: 85.5 µM
Compound: O=C1c2cccc(O)c2[C@H]2C[C@@H]1c1ccc3cccc(O)c3c1O2
GI50 [14]: 98.4 µM

Compound: Cc1cc(O)cc2c1Oc1c(Cc3ccc(O)cc3)c(O)cc(C)c1C(=O)O2
IC50 [15]: 3.64 µM | IC50 [16]: 3.09 µM

Compound: COc1cc(=O)oc2c1CO[C@@](C)(OC)[C@H]2C
IC50 [17]: 35.1 µM | IC50 [18]: 17.5 µM | IC50 [19]: 17.7 µM

Compound: COc1ccc(O)c2c(=O)oc3cc(O)cc(C)c3c12
IC50 [20]: 85 µM

Compound: COc1cc2oc(C)cc(=O)c2c(O)c1CC(C)c1ccco1 (stereo unspecified)
IC50 [21]: 43 µg/mL (≈ 137 µM) | IC50 [22]: 18 µg/mL (≈ 57.3 µM)

Compound: CCCCC/C=C1/C(=O)OC(=O)[C@@H]1C
IC50 [23]: 16 µM

Compound: CC1(C)CC[C@@H](O)[C@](C)(O)[C@@]12CC=C(C=O)CC2
IC50 [24]: 159 µM | IC50 [25]: 165 µM

Compound: CC[C@H](C)[C@@H]1NC(=O)[C@@H]2CSSC[C@H](NC(=O)[C@H](CC(C)C)NC(=O)[C@H](C(C)C)NC1=O)C(=O)N2 (cyclo(CCIVL); disulfide 1-2)
IC50 [26]: 650 nM | IC50 [27]: 2420 nM | IC50 [28]: 36 µM

Compound: C/C=C/[C@@H]1[C@@H]2C[C@@H](C)CC[C@@H]2[C@](C)(O)[C@@H]2Oc3c(-c4ccc(O)cc4)c[nH]c(=O)c3C(=O)[C@@H]12
IC50 [29]: 8.8 µM

Compound: COC(=O)c1cc(OC)cc(O)c1C(=O)c1c(O)cc(C)c2c1O[C@@](C)(CC(=O)[C@@]13C[C@H](O)[C@@H]4O[C@]4(CC=C(C)C)[C@@H]1O3)C2
IC50 [30]: 35.3 µM | IC50 [31]: 38.3 µM | IC50 [32]: 44.3 µM | IC50 [33]: 39.3 µM

Compound: COCC1=C2C=C(C)OC=C2[C@H](O)[C@@](C)(O)C1=O
IC50 [34]: 48.1 µg/mL (≈ 191 µM) | IC50 [35]: 46.5 µg/mL (≈ 184 µM) | IC50 [25]: 17.4 µg/mL

Compound: COc1ccc2c(c1)N(CC=C(C)C)C(=O)[C@@]21C=C2C(=O)N3CCC[C@H]3C(=O)N2[C@H]1C=C(C)C
IC50 [36]: 35.5 µM | IC50 [37]: 14.1 µM
